Experimental data: patent US9845319B2, “Amide substituted thiazoles as modulators of RORyt” (Janssen Pharmaceutica NV, priority 2014, dated 2017)

Experiments:
[1] = target: T1, human RORγt ligand binding domain (RORγt LBD) (Homo sapiens, UniProt P51449); experiment: RORγt ThermoFluor assay; settings: estimated from thermal shift concentration response
T1 construct: His-tag (N); TurboTEV protease cleavage site (ENLYFQG) (N); made in house; host or cells: E. coli (pHIS1, a modified pET expression vector)
T1 sequence (P51449 with tags, fused parts or gaps): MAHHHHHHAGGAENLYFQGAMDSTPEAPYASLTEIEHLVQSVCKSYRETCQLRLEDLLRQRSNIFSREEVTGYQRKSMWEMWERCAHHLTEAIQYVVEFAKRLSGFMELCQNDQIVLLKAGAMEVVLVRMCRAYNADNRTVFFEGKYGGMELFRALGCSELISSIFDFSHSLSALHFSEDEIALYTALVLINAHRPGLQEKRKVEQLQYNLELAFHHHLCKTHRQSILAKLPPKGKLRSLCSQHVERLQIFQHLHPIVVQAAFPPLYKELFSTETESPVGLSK
Protocol: This approach is applicable to a wide variety of systems, and rigorous in theoretical interpretation through quantitation of equilibrium binding constants (KD).
The shift in the melting point described as a ΔTm is proportional to the concentration and affinity of the ligand.
Protein and compound solutions are dispensed into black 384-well polypropylene PCR microplates (Abgene) and overlayed with silicone oil (1 μL, Fluka, type DC 200) to prevent evaporation.
Bar-coded assay plates are robotically loaded onto a thermostatically controlled PCR-type thermal block and then heated at a typical ramp-rate of 1° C./min for all experiments.
Fluorescence was measured by continuous illumination with UV light (Hamamatsu LC6) supplied via fiber optic and filtered through a band-pass filter (380-400 nm; >6 OD cutoff). Fluorescence emission of the entire 384-well plate was detected by measuring light intensity using a CCD camera (Sensys, Roper Scientific) filtered to detect 500±25 nm, resulting in simultaneous and independent readings of all 384 wells. Images were collected at each temperature, and the sum of the pixel intensity in a given area of the assay plate was recorded versus temperature. Reference wells contained RORγt without compounds, and the assay conditions were as follows: • 0.065 mg/mL RORγt • 60 μM 1,8-ANS • 100 mM Hepes, pH 7.0 • 10 mM NaCl • 2.5 mM GSH • 0.002% Tween-20
Project compounds were arranged in a pre-dosed mother plate (Greiner Bio-one) wherein compounds are serially diluted in 100% DMSO by 1:2 from a high concentration of 10 mM over 12 columns within a series (column 12 is a reference well containing DMSO, no compound). The compounds were robotically dispensed directly into assay plates (1×=46 nL) using a Hummingbird capillary liquid handling instrument (Digilab). Following compound dispense, protein and dye in buffer was added to achieve the final assay volume of 3 μL, followed by 1 μL of silicone oil.

full-length human RORγt = target: T2, full-length human RORγt (Homo sapiens, UniProt P51449); experiment: RORγt (full-length human) Reporter Assay, Conditions A; type: cell-based; settings: for IC50: HEK293T cells, GAL4-DBD-RORγt, luciferase, read-out: RORγt (FL) Reporter Assay A, IC50; for inhibition at 6 µM: read-out: RORγt (FL) Reporter Assay A, % inhibition @ 6 μM, 6 μM compound; for inhibition at 2 µM: read-out: RORγt (FL) Reporter Assay A, % inhibition (* at 2 μM), 2 μM compound concentration (footnote *)
T2 construct: expressed in transfected cells; host or cells: HEK293T, transiently transfected with pCMV-BD-ROR
T2 sequence (P51449 1-497 isoform P51449-2): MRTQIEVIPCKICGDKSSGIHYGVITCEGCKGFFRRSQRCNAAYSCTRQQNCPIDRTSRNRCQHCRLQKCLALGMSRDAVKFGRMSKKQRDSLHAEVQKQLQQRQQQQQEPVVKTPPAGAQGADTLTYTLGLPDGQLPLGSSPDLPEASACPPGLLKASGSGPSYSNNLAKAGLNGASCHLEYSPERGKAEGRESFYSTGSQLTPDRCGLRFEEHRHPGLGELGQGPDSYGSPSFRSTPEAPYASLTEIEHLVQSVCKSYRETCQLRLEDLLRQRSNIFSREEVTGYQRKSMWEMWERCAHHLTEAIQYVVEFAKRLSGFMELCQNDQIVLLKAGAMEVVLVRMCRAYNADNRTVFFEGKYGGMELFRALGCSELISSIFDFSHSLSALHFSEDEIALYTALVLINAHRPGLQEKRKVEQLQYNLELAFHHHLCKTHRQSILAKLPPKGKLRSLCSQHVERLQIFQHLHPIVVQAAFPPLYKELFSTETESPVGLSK
Protocol: After overnight (16 to 20 hours) incubation, media were removed and cells were lysed with 20 μL 1× Passive Lysis Buffer (Promega) for 10-15 minutes. Luminescence was measured using a BMG LUMIstar OPTIMA plate reader, after addition of 75 μL/well firefly luciferase buffer, followed by 75 μL/well Renilla luciferase buffer. To calculate the effect of compounds on RORγt activity, firefly values were normalized against values of DMSO only and values of reference compound at saturating concentration, then further normalized against Renilla signals. IC50s were generated by plotting final Renilla normalized data against compound concentration and percent inhibition was calculated against DMSO control.

| SMILES | Kd [1] | IC50 (full-length human RORγt) | inhibition at 6 µM (full-length human RORγt) | inhibition at 2 µM (full-length human RORγt) |
| --- | --- | --- | --- | --- |
| C[C@H](NS(=O)(=O)c1ccc(-c2sc(-c3nnc(CC(C)(C)O)o3)nc2C(=O)N2CCC(F)(F)CC2)c(Cl)c1Cl)C(F)(F)F [Example 3, (S)-2,3-Dichloro-4-(4-(4,4-difluoropiperidine-1-carbonyl)-2-(5-(2-hydroxy-2-methylpropyl)-1,3,4-oxadiazol-2-yl)thiazol-5-yl)-N-(1,1,1-trifluoropropan-2-yl)benzenesulfonamide] | 0.0016 µM | 0.026 µM | 107% | – |
| C[C@H](NS(=O)(=O)c1ccc(-c2sc(-c3nnc(CC(C)(C)O)o3)nc2C(=O)N2CC(F)(F)C[C@@H]2C)c(Cl)c1Cl)C(F)(F)F [Example 3/2, 2,3-Dichloro-4-(4-((S)-4,4-difluoro-2-methylpyrrolidine-1-carbonyl)-2-(5-(2-hydroxy-2-methylpropyl)-1,3,4-oxadiazol-2-yl)thiazol-5-yl)-N—((S)-1,1,1-trifluoropropan-2-yl)benzenesulfonamide] | 0.00059 µM | 0.023 µM | 107% | – |
| CCN(CC)C(=O)c1nc(-c2nnc(CC(C)(C)O)o2)sc1-c1ccc(S(=O)(=O)N[C@@H](C)C(F)(F)F)c(Cl)c1Cl [Example 3/3, (S)-5-(2,3-Dichloro-4-(N-(1,1,1-trifluoropropan-2-yl)sulfamoyl)phenyl)-N,N-diethyl-2-(5-(2-hydroxy-2-methylpropyl)-1,3,4-oxadiazol-2-yl)thiazole-4-carboxamide] | 0.01 µM | 0.027 µM | 107% | – |
| C[C@H](NS(=O)(=O)c1ccc(-c2sc(-c3nnco3)nc2C(=O)N2CCC(F)(F)CC2)c(Cl)c1Cl)C(F)(F)F [Example 4/5, (S)-2,3-Dichloro-4-(4-(4,4-difluoropiperidine-1-carbonyl)-2-(1,3,4-oxadiazol-2-yl)thiazol-5-yl)-N-(1,1,1-trifluoropropan-2-yl)benzenesulfonamide] | 0.012 µM | 0.052 µM | 110% | – |
| CCN(CC(F)(F)F)C(=O)c1nc(-c2nnc(C(C)(C)O)o2)sc1-c1ccc(S(=O)(=O)N[C@@H](C)C(F)(F)F)c(Cl)c1Cl [Example 4/6, (S)-5-(2,3-Dichloro-4-(N-(1,1,1-trifluoropropan-2-yl)sulfamoyl)phenyl)-N-ethyl-2-(5-(2-hydroxypropan-2-yl)-1,3,4-oxadiazol-2-yl)-N-(2,2,2-trifluoroethyl)thiazole-4-carboxamide] | 0.0063 µM | 0.023 µM | 101% | – |
| CC1CCN(C(=O)c2nc(-c3nnc(C(N)=O)o3)sc2-c2ccc(S(=O)(=O)N[C@@H](C)C(F)(F)F)c3ccccc23)CC1 [Example 5, (S)-5-(4-(4-Methylpiperidine-1-carbonyl)-5-(4-(N-(1,1,1-trifluoropropan-2-yl)sulfamoyl)naphthalen-1-yl)thiazol-2-yl)-1,3,4-oxadiazole-2-carboxamide] | 0.037 µM | 0.17 µM | 106% | – |

Continued, values first:

| Kd [1] | IC50 (full-length human RORγt) | inhibition at 6 µM (full-length human RORγt) | inhibition at 2 µM (full-length human RORγt) | SMILES |
| --- | --- | --- | --- | --- |
| 0.016 µM | 0.057 µM | 109% | – | C[C@H](NS(=O)(=O)c1ccc(-c2sc(-c3nnc(CC(C)(C)O)o3)nc2C(=O)N2CCC(F)(F)C2)c(Cl)c1Cl)C(F)(F)F [Example 3/1, (S)-2,3-Dichloro-4-(4-(3,3-difluoropyrrolidine-1-carbonyl)-2-(5-(2-hydroxy-2-methylpropyl)-1,3,4-oxadiazol-2-yl)thiazol-5-yl)-N-(1,1,1-trifluoropropan-2-yl)benzenesulfonamide] |
| 0.024 µM | 0.05 µM | – | 106% | CC(C)(O)Cc1nnc(-c2nc(C(=O)N3CCC(F)CC3)c(-c3ccc(C(O)(C(F)(F)F)C(F)(F)F)c(Cl)c3Cl)s2)o1 [Example 3/4, (5-(2,3-Dichloro-4-(1,1,1,3,3,3-hexafluoro-2-hydroxypropan-2-yl)phenyl)-2-(5-(2-hydroxy-2-methylpropyl)-1,3,4-oxadiazol-2-yl)thiazol-4-yl)(4-fluoropiperidin-1-yl)methanone] |
| 0.076 µM | 0.37 µM | 104% | – | CC(C)(O)Cc1nnc(-c2nc(C(=O)N3CC[C@H](F)C3)c(-c3ccc(C(O)(C(F)(F)F)C(F)(F)F)c(Cl)c3Cl)s2)o1 [Example 3/6, (S)-(5-(2,3-Dichloro-4-(1,1,1,3,3,3-hexafluoro-2-hydroxypropan-2-yl)phenyl)-2-(5-(2-hydroxy-2-methylpropyl)-1,3,4-oxadiazol-2-yl)thiazol-4-yl)(3-fluoropyrrolidin-1-yl)methanone] |
| 0.081 µM | 0.29 µM | 103% | – | C[C@H](NS(=O)(=O)c1ccc(-c2sc(-c3nnc(CC(C)(C)O)o3)nc2C(=O)N2CCC(F)(F)CC2)c(OC(F)F)c1F)C(F)(F)F [Example 3/7, (S)-3-(Difluoromethoxy)-4-(4-(4,4-difluoropiperidine-1-carbonyl)-2-(5-(2-hydroxy-2-methylpropyl)-1,3,4-oxadiazol-2-yl)thiazol-5-yl)-2-fluoro-N-(1,1,1-trifluoropropan-2-yl)benzenesulfonamide] |
| 0.0015 µM | 0.019 µM | – | 103% | CC1CCN(C(=O)c2nc(-c3nnc(C(C)(C)O)o3)sc2-c2ccc(S(=O)(=O)N[C@@H](C)C(F)(F)F)c3ccccc23)CC1 [Example 4, (S)-4-(2-(5-(2-Hydroxypropan-2-yl)-1,3,4-oxadiazol-2-yl)-4-(4-methylpiperidine-1-carbonyl)thiazol-5-yl)-N-(1,1,1-trifluoropropan-2-yl)naphthalene-1-sulfonamide] |
| 0.00038 µM | 0.026 µM | 105% | – | C[C@H](NS(=O)(=O)c1ccc(-c2sc(-c3nnc(C(C)(C)O)o3)nc2C(=O)N2CCCC[C@@H]2C)c(Cl)c1Cl)C(F)(F)F [Example 4/3, 2,3-Dichloro-4-(2-(5-(2-hydroxypropan-2-yl)-1,3,4-oxadiazol-2-yl)-4-((S)-2-methylpiperidine-1-carbonyl)thiazol-5-yl)-N—((S)-1,1,1-trifluoropropan-2-yl)benzenesulfonamide] |
| 0.12 µM | 0.28 µM | 105% | – | CCN(CC)C(=O)c1nc(-c2nnc(C(N)=O)o2)sc1-c1ccc(S(=O)(=O)N[C@@H](C)C(F)(F)F)c(Cl)c1Cl [Example 5/1, (S)-5-(5-(2,3-Dichloro-4-(N-(1,1,1-trifluoropropan-2-yl)sulfamoyl)phenyl)-4-(diethylcarbamoyl)thiazol-2-yl)-1,3,4-oxadiazole-2-carboxamide] |
| 0.00099 µM | 0.013 µM | – | 105% | CC[C@H](NS(=O)(=O)c1ccc(-c2sc(-c3nnc(C(C)(C)O)o3)nc2C(=O)N(CC)CC)c(Cl)c1Cl)C(F)(F)F [Example 6, (S)-5-(2,3-Dichloro-4-(N-(1,1,1-trifluorobutan-2-yl)sulfamoyl)phenyl)-N,N-diethyl-2-(5-(2-hydroxypropan-2-yl)-1,3,4-oxadiazol-2-yl)thiazole-4-carboxamide] |
